According to patent US7135625B2, “Gene concerning brassinosteroid-sensitivity of plants and utilization thereof” (National Institute of Agrobiological Sciences, priority 2000, dated 2006):

Tests used:
Format in all cases: in vivo, Oriza sativa
[1] = tested on: d61-1 mutant and d61-2 mutant; assay: Lamina joint test, d61 mutants
Description: (§1) The degree of bending between the leaf blade and leaf sheath in rice is well known to be sensitive to the concentration of brassinolide or its related compounds. This unusual character of rice leaf is the basis for a quantitative bioassay for brassinosteroids, known as the lamina joint test (Wada, Ketal. (1981) Plant and Cell Physiol. 22, 323–325), even though the biological function of endogenous brassinosteroids in monocotyledonous plants including rice remains unknown. If the mutants are less sensitive to brassinosteroids, the degree of bending between the leaf blade and sheath of the mutant plants will be less than that of the wild type plants.
(§2) Lamina joints of first leave of wild type T65 plant (the background strain of the mutants), d61-1 mutant, and d61-2 mutant were tested with 10^−3 and 10^−2 μg/ml of brassinosteroids, respectively.

[2] = tested on: d61-1 and d61-2 mutant seedlings; assay: Germination of seeds on agar plates with or without brassinolide, d61 mutants; settings: 1 μM brassinolide on agar plates, observed 1 day after germination
Experimental: (§3) Rice (Oriza sativa) seeds were soaked in distilled water and made to imbibe for 48 h at 30° C. After washing the seeds with distilled water several times, the seeds were germinated in a dark chamber at 30° C. for 8 days. Rice plants were grown in the field or in the greenhouse at 30° C. (day) and 24° C. (night).
(§4) Next, seeds of the wild type and mutant plants were germinated on agar plates with or without 1 μM brassinolide. The characteristics of whole seedlings were observed 1 day after germination.

d61 mutants = assay: Restoration of dwarfism of d61 mutants by application of brassinolide
OsBRI1 mRNA = assay: Effect of exogenous brassinolide on the level of OsBRI1 mRNA (RNA hybridization); settings: light- and dark-grown seedlings, 0.9% agar plates with 1 μM brassinolide, six days
Description: RNA was isolated from various rice tissues as described in literature (Chomczynski, P. and Sacchi, N.: Anal. Biochem. (1987) 162:156). Ten μg of total RNA were electrophoresed in a 1% agarose gel, then transferred to a Hybond N^+ membrane (Amersham), and analyzed by RNA gel blot hybridization. The present inventors used a partial cDNA fragment (Ser^740 to Asp^1116 corresponding to the kinase domain), as a probe which specifically hybridized to the genomic DNA fragment encoding OsBRI1. DNA hybridization analysis was performed with the same probe and hybridization conditions as described above.
The present inventors also tested the effects of exogenously applied brassinolide and light on the level of OsBRI1 mRNA. Germinating seeds were placed on 0.9% agar plates with or without 1 μM brassinolide and grown for six days in the light or dark.

[3] = tested on: wild type plants (rice seedlings); assay: Germination of seeds on agar plates with or without brassinolide, wild type; settings: 1 μM brassinolide on agar plates, observed 1 day after germination
Experimental: as §3, §4

wild type T65 plant = assay: Lamina joint test, wild type; settings: wild type T65, first leaf, 10^−3 and 10^−2 μg/ml
Description: as §1, §2

Structure (SMILES): CC(C)[C@H](C)[C@@H](O)[C@H](O)[C@@H](C)[C@H]1CC[C@H]2[C@@H]3COC(=O)[C@H]4C[C@H](O)[C@H](O)C[C@]4(C)[C@H]3CC[C@]12C [brassinolide]
- degree of bending between leaf blade and leaf sheath ([1]; d61-1 and d61-2 mutants, first leaf, 10^−3 and 10^−2 μg/ml): degree of bending increased
- degree of bending between leaf blade and leaf sheath ([1]; d61-2 mutant, 10^−2 μg/ml brassinolide): bent at less than a right angle
- growth of seedlings [2]: normal growth patterns
- growth of seedlings ([2]; listed as BL): not affected
- restoration of the dwarfism of the d61 mutants (d61 mutants): could not be achieved
- level of OsBRI1 expression (OsBRI1 mRNA): reduced level of OsBRI1 expression
- growth of seedlings (coleoptile, foliage leaves) [3]: elongated abnormally
- root elongation [3]: inhibited
- growth of seedlings (coleoptile, foliage leaves) ([3]; listed as BL): induced abnormal growth
- degree of bending between leaf blade and leaf sheath (wild type T65 plant): even more bent
